# Measured values as given in US5766624A, “Liposomal defensins” (The Liposme Company, Inc., priority 1995, dated 1998).
# Where no end group is shown, it is not given here.
# How the values were obtained:
# protein kinase C = details: Charp et al., Biochem. Pharmacol. 37(5):951 (1988); cited from earlier work
# [1] = Right angle light scattering of aqueous indolicidin; format: physicochemical; details: 10 mM HEPES, 150 mM NaCl, pH 7.5; light scattering 500 nm, 90 degrees
# Description: FIG. 1. Right Angle Light Scattering of Aqueous Indolicidin. […] Samples were placed in fluorescence cuvettes and the scattering of light at 500 nm wavelengths (excitation wavelength) was measured in the fluorimeter at an angle of 90 degrees.
# Samples were placed in fluorescence cuvettes and light scattering at 500 nm ([…] in the fluorimeter, at a 90 degree angle.
# In vivo acute toxicity = test: In vivo acute toxicity; parameters: species or system Balb/c mice; details: for Number of Animals Dead: tail vein
# Description: Mice were also injected with saline and with empty liposomes.
# Aspergillus fumigatus = test: Treatment of Aspergillus fumigatus infections in mice; format: in vivo, Balb/c mice; details: 2 mg/kg, given six hours after 2×10^7 A. fumigatus spores; 15-day period
# From the text: FIG. 14. Therapeutic Efficacy of Free and Liposomal Indolicidin Against Aspergillus Infections in Mice. […] The animals' survival was monitored over a period of fifteen days. Percent survival (vertical axis) is plotted against time in days (horizontal axis).
# Male Balb/c mice were each injected with 2×10^7 Aspergillus fumigatus spores by injection in the tail vein. After six hours, the mice were randomly divided into five groups of 10 mice each. […] The animals' survival was monitored over a 15-day period.
# [2] = Leakage of CAT1 probe from DSPC/Chol/DDAB liposomes (ESR)
# Description: A solution of DSPC (51.6 mg), cholesterol (20.2 mg) and dimethyldioctadecyl ammonium bromide (DDAB; 8.23 mg) was dried in a round-bottom flask. The lipids were rehydrated with buffer (10 mM HEPES, 150 mM NaCl) containing 0.5 mM of the probe CAT1 so as to form a suspension of multilamellar liposomes. The suspension was heated at 65 deg. C. for 10 min and then washed twice in 10 ml of the HEPES buffer, with the final pellet comprising DSPC/Chol/DDAB multilamellar liposomes containing CAT1, being resuspended in HEPES buffer to a final volume of 2 ml. A standard phosphate assay (see Chen et al., Anal. Chem. 28:1956 (1956)) was performed to determine the amount of lipid remaining (34.12 mg).
# Various amounts of this solution (see Table 2, below) were combined with an aliquot (100 μl) of the liposome suspension, the final volume of the samples being brought up to 0.2 ml with HEPES buffer. These samples were centrifuged, and aliquots of the supernatants were taken for ESR spectra determination (23 deg. C.) to measure probe leakage.
# [3] = Leakage of CAT1 probe from DSPC/Chol liposomes (ESR); details: for % Probe in Supernatant: CAT1, 23 deg. C
# Description: A solution of DSPC (60 mg) and cholesterol (20 mg) was dried by rotary evaporation; the dried lipids were then rehydrated with 2 ml of buffer (10 mM HEPES, 150 mM NaCl), containing 0.5 mM of the probe CAT1 (4-trimethylammmonium-2,2,6,6-tetramethylpiperidine-1-oxyl-iodide) so as to form a suspension of multilamellar liposomes containing the probe. A suspension of these vesicles was then heated for 10 min. at 65 deg. C. The sample was washed four times with HEPES buffer and resuspended in buffer to a final volume of 2 ml. […] Various amounts of this solution (see Table 1, below) were combined with an aliquot (100 μl) of the liposome preparation, with buffer then being added to bring the final volume up to 0.2 ml. Samples were microfuged, and the supernatants transferred to ESR tubes. Spectra were taken at room temperature (23 deg. C.) to determine the concentration of the probe in the supernatant samples (see Perkins et al., Biochim. Biophys. Acta. 943:103 (1988)).
# The data (see Table 1, below) indicates the percent of the probe found in the supernatant, and thereby, the percent leakage from the DSPC/Chol liposomes.
molecule,measurement,setting,value
"HNP-3: human neutrophil protein 3, a prototypical mammalian defensin",protein kinase C activity,protein kinase C,inhibited
"HNP-2: human neutrophil protein 2, a prototypical mammalian defensin (CYCRIPACIAGERRYGTCIYQGRLWAFCC; ends and bridges not checked; cysteine pairing not given here; UniProt P59665 66-94, looked up)",protein kinase C activity,protein kinase C,inhibited
"HNP-1: human neutrophil protein 1, a prototypical mammalian defensin",protein kinase C activity,protein kinase C,inhibited
CC[C@H](C)[C@H](N)C(=O)N[C@@H](CC(C)C)C(=O)N1CCC[C@H]1C(=O)N[C@@H](Cc1c[nH]c2ccccc12)C(=O)N[C@@H](CCCCN)C(=O)N[C@@H](Cc1c[nH]c2ccccc12)C(=O)N1CCC[C@H]1C(=O)N[C@@H](Cc1c[nH]c2ccccc12)C(=O)N[C@@H](Cc1c[nH]c2ccccc12)C(=O)N1CCC[C@H]1C(=O)N[C@@H](Cc1c[nH]c2ccccc12)C(=O)N[C@@H](CCCNC(=N)N)C(=O)N[C@@H](CCCNC(=N)N)C(N)=O [indolicidin],concentration at which indolicidin self-associates in solution,[1],≥ 30000 ng/mL
same,Number of Animals Dead,In vivo acute toxicity; free indolicidin dose 0.4 mg/kg,0/5
same,Number of Animals Dead,In vivo acute toxicity; free indolicidin dose 1.2 mg/kg,1/5
same,Number of Animals Dead,In vivo acute toxicity; free indolicidin dose 4.0 mg/kg,3/5
same,Number of Animals Dead,In vivo acute toxicity; free indolicidin dose 12.0 mg/kg,0/5
same,LD50,"In vivo acute toxicity; male Balb/c mice, tail vein injection",3 mg/kg
same,survival times of infected mice,Aspergillus fumigatus,slight increase in survival times
same,% Probe in Supernatant,"[2]; 0.48 mole % indolicidin (3.20 μl stock), CAT1, 23 deg. C",8.00%
same,% Probe in Supernatant,[2]; 0.93 mole % indolicidin (6.30 μl stock),8.00%
same,% Probe in Supernatant,[2]; 1.84 mole % indolicidin (12.50 μl stock),9.78%
same,% Probe in Supernatant,[2]; 3.61 mole % indolicidin (25.00 μl stock),10.67%
same,% Probe in Supernatant,[2]; 6.99 mole % indolicidin (50.00 μl stock),9.78%
same,% Probe in Supernatant,"[2]; 10.09 mole % indolicidin (75.00 μl stock), corrected for any liposomes in the supernatant",0%
same,% Probe in Supernatant,"[2]; 13.04 mole % indolicidin (100.00 μl stock), corrected for any liposomes in the supernatant",0%
same,% Leakage of Probe,[3]; 0.42 mole % indolicidin,1.75%
same,% Probe in Supernatant,[3]; 0.42 mole % indolicidin (3.20 μl stock),6.14%
same,% Leakage of Probe,[3]; 0.82 mole % indolicidin,1.75%
same,% Probe in Supernatant,[3]; 0.82 mole % indolicidin (6.30 μl stock),6.14%
same,% Leakage of Probe,[3]; 1.61 mole % indolicidin,0.87%
same,% Probe in Supernatant,[3]; 1.61 mole % indolicidin (12.50 μl stock),5.26%
same,% Leakage of Probe,[3]; 3.16 mole % indolicidin,1.75%
same,% Probe in Supernatant,[3]; 3.16 mole % indolicidin (25.00 μl stock),6.14%
same,% Leakage of Probe,[3]; 6.16 mole % indolicidin,2.63%
same,% Probe in Supernatant,[3]; 6.16 mole % indolicidin (50.00 μl stock),7.02%
same,% Leakage of Probe,[3]; 8.93 mole % indolicidin,1.75%
same,% Probe in Supernatant,[3]; 8.93 mole % indolicidin (75.00 μl stock),6.14%
same,effect of increasing indolicidin concentration on probe leakage,"[3]; DSPC/Chol liposomes, 0.42-8.93 mole % indolicidin",did not significantly increase probe leakage
